Data as given in US20180335421A1, “METHOD FOR SCREENING INHIBITORS TARGETING ANTI-APOPTOTIC SURVIVAL PATHWAYS” (Memorial Sloan-Kettering Cancer Center, priority 2015, published 2018).

How the values were obtained:
MCL-1 = MCL-1 (Homo sapiens, UniProt Q07820); conditions: background statement; cited from earlier work
BCL-2-addicted H23 cells = assay: Treatment of engineered H23 cell lines with BCL-2, BCL-XL and MCL-1 inhibitors to confirm selective addiction; type: cell-based, human; conditions: BCL-2-addicted H23 cells (BCL-2 overexpression, MCL-1 knockdown); FIG. 3B
parental H23 cells = assay: Treatment of parental (MCL-1-addicted) H23 cells with BCL-2, BCL-XL and MCL-1 inhibitors; type: cell-based, human; conditions: parental H23 cells (MCL-1-addicted); FIG. 3B
A549 cells = assay: ABT-737-induced apoptosis after knockdown of MCL-1; type: cell-based, human; conditions: A549 cells with knockdown of MCL-1
[1] = system: BCL-XL-addicted H23 cells; assay: Treatment of engineered H23 cell lines with BCL-2, BCL-XL and MCL-1 inhibitors to confirm selective addiction; conditions: BCL-XL-addicted H23 cells (BCL-XL overexpression, MCL-1 knockdown); FIG. 3B
Text: Isogenic H23 cancer cell lines with selective addiction to MCL-1, BCL-2, or BCL-XL.

[2] = system: MCL-1-IRES-BIM or MCL-1-IRES-PUMA MEFs; assay: Apoptosis induction by BH3-only proteins in engineered MEFs; type: cell-based, mouse; conditions: MCL-1-addicted MEFs; FIGS. 2A and 2B
Text: (§1) Cellular dependency on BCL-2, BCL-XL or MCL-1 for survival is governed by the relative abundance among these proteins (FIG. 1). Intricate interplays among the BCL-2 subfamilies govern cellular survival/death, and also provide a molecular blueprint concerning the clinical application of BH3-mimetics in killing cancer cells. Using MEFs that express different combinations of anti-apoptotic BCL-2 members and activator BH3s, a system has been built that can distinguish between the inhibition of BCL-2/BCL-XL and MCL-1 by BAD/BAD mimetics and […]/NOXA mimetics, respectively (FIGS. 2A and 2B).
(§2) Importantly, this system mimics the “primed” cell death state of many cancers with abundant pre-assembled complexes of BCL-XL/BIM, BCL-XL/PUMA, BCL-2/BIM, BCL-2/PUMA, MCL-1/BIM or MCL-1/PUMA. […] In addition, compounds that downregulate MCL-1 mRNA and/or protein or induce endogenous NOXA, BIM, or PUMA will trigger similar death patterns.

wild-type cells = assay: Sensitivity of wild-type cells to BH3-only proteins; type: cell-based, mouse; conditions: wild-type cells lacking pre-assembled cell death priming complexes; FIG. 2B
Text: as §2

[3] = system: BCL-XL-IRES-BIM, BCL-XL-IRES-PUMA, BCL-2-IRES-BIM or BCL-2-IRES-PUMA MEFs; assay: Apoptosis induction by BH3-only proteins in engineered MEFs; type: cell-based, mouse; conditions: BCL-XL- or BCL-2-addicted MEFs; FIGS. 2A and 2B
Text: as §1, §2

Sequence of MCL-1 (Q07820 whole entry): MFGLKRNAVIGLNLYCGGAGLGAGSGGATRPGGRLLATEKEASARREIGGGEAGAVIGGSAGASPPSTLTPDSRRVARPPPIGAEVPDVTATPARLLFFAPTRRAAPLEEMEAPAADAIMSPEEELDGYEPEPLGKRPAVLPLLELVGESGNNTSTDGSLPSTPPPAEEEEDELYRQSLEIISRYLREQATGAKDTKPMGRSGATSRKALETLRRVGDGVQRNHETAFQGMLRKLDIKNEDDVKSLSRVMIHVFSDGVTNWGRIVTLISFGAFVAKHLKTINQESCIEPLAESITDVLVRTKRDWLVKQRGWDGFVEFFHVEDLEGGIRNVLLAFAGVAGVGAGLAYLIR

In the case of CC1(C)CCC(c2ccc(Cl)cc2)=C(CN2CCN(c3ccc(C(=O)NS(=O)(=O)c4ccc(N[C@H](CCN5CCOCC5)CSc5ccccc5)c(S(=O)(=O)C(F)(F)F)c4)cc3)CC2)C1 [ABT-263], the “inhibition of MCL-1” value (MCL-1) is listed as “fail to inhibit”.

For CN(C)CC[C@H](CSc1ccccc1)Nc1ccc(S(=O)(=O)NC(=O)c2ccc(N3CCN(Cc4ccccc4-c4ccc(Cl)cc4)CC3)cc2)cc1[N+](=O)[O-] [ABT-737, (R)-4-(4-((4′-chloro-[1,1′-biphenyl]-2-yl)methyl)piperazin-1-yl)-N-((4-((-4-(dimethylamino)-1-(phenylthio)butan-2-yl)amino)-3-nitrophenyl)sulfonyl)benzamide], the “sensitivity of cells to inhibitor” value (BCL-2-addicted H23 cells) was “sensitive”, the “sensitivity of cells to inhibitor” value (parental H23 cells) was “only sensitive to inhibitors of MCL-1” and the “susceptibility to ABT-737-induced apoptosis” value (A549 cells) was “susceptible”. For the same molecule, the “sensitivity of cells to inhibitor” value [1] was “sensitive”.

With “NOXA: pro-apoptotic BH3-only member of the BCL-2 protein family that specifically inactivates MCL-1 (MPGKKARKNAQPSPARAPAELEVECATQLRRFGDKLNFRQKLLNLISKLFCSGT; UniProt Q13794 1-54, looked up)” the induction of apoptosis [2] was “selectively induces apoptosis” and the “sensitivity of wild-type cells” value (wild-type cells) was “less sensitive”.

B1: BAD: pro-apoptotic BH3-only BCL-2 family protein that binds to BCL-XL and BCL-2 but not MCL-1 (protein, UniProt Q92934 1-168, looked up)
Bcl2-associated agonist of …: MFQIPEFEPSEQEDSSSAERGLGPSPAGDGPSGSGKHHRQAPGLLWDASHQQEQPTSSSHHGGAGAVEIRSRHSSYPAGTEDDEGMGEEPSPFRGRSRSAPPNLWAAQRYGRELRRMSDEFVDSFKKGLPRPKSAGTATQMRQSSSWTRVFQSWWDRNLGRGSSAPSQ
In the case of B1, the induction of apoptosis [3] is reported as “induces apoptosis” and the “sensitivity of wild-type cells” value (wild-type cells) is reported as “less sensitive”.
